Earlier results in patent US20160361270A1, “UNIFORM, HIGH BASIS WEIGHT NANOFIBER FABRICS FOR MEDICAL APPLICATIONS” (University of Washington, priority 2015, published 2016).

How the values were obtained:
[1] = not given; remark: listed apart in the source

Row | SMILES | water solubility | pKa [1]
1 | Cc1cc(C)c(Nc2ccnc(Nc3ccc(C#N)cc3)n2)c(C)c1 [dapivirine] | < 1 µg/mL | 
2 | Cc1cc(C#N)cc(C)c1Oc1nc(Nc2ccc(C#N)cc2)nc(N)c1Br [etravirine] | < 100 µg/mL | 
3 | Cc1nnc(C(=O)NC(C)(C)c2nc(C(=O)NCc3ccc(F)cc3)c(O)c(=O)n2C)o1 [raltegravir] |  | 7
4 | C[C@H](Cn1cnc2c(N)ncnc21)OCP(=O)(O)O [tenofovir] | > 1000 µg/mL | 
